The source of these data is publication PMC2935290 (Journal of immunology (Baltimore, Md. : 1950), 2010).

The target of test [1] is T1, HLA-DPB1*0402 (Homo sapiens, UniProt P04440+P20036, A65V/A84D/A85E/L207M).
T1 sequence (P04440 30-258 A65V/A84D/A85E): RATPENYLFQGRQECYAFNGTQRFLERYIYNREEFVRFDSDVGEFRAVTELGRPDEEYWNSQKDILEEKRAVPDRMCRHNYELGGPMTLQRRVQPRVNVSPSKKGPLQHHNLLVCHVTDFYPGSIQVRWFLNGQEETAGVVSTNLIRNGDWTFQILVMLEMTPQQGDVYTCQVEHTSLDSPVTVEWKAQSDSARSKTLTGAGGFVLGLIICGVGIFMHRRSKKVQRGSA
T1 sequence (P20036 29-260): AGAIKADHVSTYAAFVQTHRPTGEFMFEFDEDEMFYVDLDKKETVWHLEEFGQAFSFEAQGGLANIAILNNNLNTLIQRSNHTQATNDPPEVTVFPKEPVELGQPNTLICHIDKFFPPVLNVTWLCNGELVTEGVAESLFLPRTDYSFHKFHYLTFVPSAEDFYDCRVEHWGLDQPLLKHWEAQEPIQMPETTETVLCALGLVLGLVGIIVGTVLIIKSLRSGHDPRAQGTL
Description: biochemical. It counts as binding.

In test [2] the target is T2, HLA-DPB1*0201 (Homo sapiens, UniProt P04440+P20036, A65V/A84D/A85E/K98E).
T2 sequence (P04440 30-258 A65V/A84D/A85E/K98E): T1 sequence (P04440 30-258 A65V/A84D/A85E) with K69E
T2 sequence (P20036 29-260): T1 sequence (P20036 29-260)
Description: biochemical. It counts as binding.

Changes are numbered by the printed parent chain. Where a SMILES comes first, the peptide text is derived from it. Where no end group is shown, it is not given here.

Regarding `CC[C@H](C)[C@H](NC(=O)[C@H](CC(=O)O)NC(=O)[C@H](CC(=O)O)NC(=O)[C@H](Cc1ccccc1)NC(=O)[C@H](C)NC(=O)[C@H](CCCCN)NC(=O)[C@H](CCC(N)=O)NC(=O)[C@@H](NC(=O)[C@H](CCCCN)NC(=O)[C@@H](N)CCC(=O)O)[C@@H](C)CC)C(=O)N[C@@H](C)C(=O)N[C@@H](CCCCN)C(=O)N[C@@H](Cc1ccc(O)cc1)C(=O)N[C@@H](Cc1ccccc1)C(=O)N[C@@H](CO)C(=O)N[C@@H](CCCCN)C(=O)O`, the IC50 in test [1] came to 506 nM; in test [2], 75 nM.
For `CC[C@H](C)[C@H](NC(=O)[C@H](Cc1ccc(O)cc1)NC(=O)[C@H](CCC(=O)O)NC(=O)[C@H](Cc1ccccc1)NC(=O)[C@H](C)NC(=O)[C@H](CCC(N)=O)NC(=O)[C@H](CO)NC(=O)[C@@H]1CCCN1C(=O)[C@@H](N)CC(C)C)C(=O)N[C@@H](CC(C)C)C(=O)N[C@@H](Cc1ccc(O)cc1)C(=O)N[C@@H](CC(N)=O)C(=O)N[C@@H](CCCCN)C(=O)NCC(=O)O` the same measures were 9.6 nM and 1 nM.
For `CC(C)C[C@H](NC(=O)[C@@H](NC(=O)[C@H](Cc1c[nH]cn1)NC(=O)[C@H](CO)NC(=O)[C@H](Cc1ccccc1)NC(=O)[C@H](CO)NC(=O)CNC(=O)CNC(=O)[C@H](CC(C)C)NC(=O)[C@H](Cc1ccc(O)cc1)NC(=O)[C@H](CCCNC(=N)N)NC(=O)[C@H](Cc1ccc(O)cc1)NC(=O)[C@H](CC(C)C)NC(=O)[C@@H]1CCCN1)C(C)C)C(=O)O`, in that order: 149 nM and 13 nM.
For `CC(C)C[C@H](NC(=O)[C@@H](NC(=O)[C@H](CC(N)=O)NC(=O)[C@H](Cc1ccccc1)NC(=O)[C@H](CC(C)C)NC(=O)[C@H](CO)NC(=O)[C@H](Cc1c[nH]c2ccccc12)NC(=O)[C@@H](NC(=O)[C@@H](NC(=O)[C@H](Cc1c[nH]cn1)NC(=O)[C@H](CC(=O)O)NC(=O)[C@@H]1CCCN1C(=O)[C@@H](N)C(C)C)C(C)C)C(C)C)[C@@H](C)O)C(=O)O`, in that order: 8.4 nM and 1.1 nM.
As for `CC[C@H](C)[C@H](NC(=O)[C@H](CO)NC(=O)[C@H](Cc1ccc(O)cc1)NC(=O)[C@H](C)NC(=O)[C@H](CS)NC(=O)[C@H](CC(C)C)NC(=O)[C@H](CC(C)C)NC(=O)[C@H](CS)NC(=O)[C@@H](N)CC(=O)O)C(=O)N[C@@H](CCC(=O)O)C(=O)N[C@@H](Cc1ccccc1)C(=O)NCC(=O)N[C@H](C(=O)N[C@@H](CC(N)=O)C(=O)N[C@H](C(=O)N[C@@H](CO)C(=O)N[C@@H](CCCCN)C(=O)N[C@@H](CCC(=O)O)C(=O)N[C@@H](Cc1c[nH]cn1)C(=O)N[C@@H](CC(=O)O)C(=O)O)[C@@H](C)CC)[C@@H](C)O` (H-DCLLCAYSIEFGTNISKEHD-OH), the results for the IC50 in test [1] and in test [2] were 232 nM and 343 nM, respectively.
Consider CDGERPTLAFLQDVM, for which the IC50 turned out to be 15200 nM in test [1] and 32800 nM in test [2].
For DKKETVWHLE, in that order: 3740 nM and 93 nM.
As for DTLRSYYADWYQQKPG, the IC50 in test [1] was 1550 nM; in test [2] it was 188 nM.
For EEVDMTPADALDDFD the same measures were 26000 nM and 5800 nM.
For FFLLTRILTIPQSLD the same measures were 1.2 nM and 0.3 nM.
For INEPTAAAIAYGLDR the same measures were 11600 nM and 4150 nM.
As to NNKYAASSYLSLTPE, the values for the concentration for half-maximal inhibition (IC50) in test [1] and in test [2] were 42 nM and 2.4 nM, respectively.
With RSQPGLCNMYKDSHHPARTA, the results for the IC50 in test [1] and in test [2] were 7780 nM and 4590 nM, respectively.
For SDVGEFRAVTELG the same measures were 4050 nM and 619 nM.
